Reference: patent US4138485A, “Phenylalanine derivatives” (Kyowa Hakko Kogyo Kabushiki Kaisha, priority 1976, dated 1979)

What was measured:
Acute toxicity in rats = conditions: in vivo; rat, oral administration, after one week; read-out: Acute Toxicity (LD50), C
Protocol: (§1) (1) Acute toxicity and tonic convulsion in hind paw:
(§2) The acute toxicity and tonic convulsion occured by stimulus by hand touch were determined in the following manner to give the results shown in Table 2.
(b) Acute toxicity in rats:
28 Groups, each consisting of 5 rats (male Wistar strain, weight -- 200 g), were used for the test and control groups. The compounds shown in Table 2 were orally administered to the rats. After one week, the survival ratio was measured.

Acute toxicity in mice = conditions: in vivo, mouse, after one week
Protocol: as §1, §2
(a) Acute toxicity in mice:
38 Groups, each consisting of 5 mice (male dd-strain, weight -- 18 to 24 g), were used for the test and control groups. The compounds shown in Table 2 were administered orally or intraperitoneally to the mice. After one week, the survival ratio was measured.

Cholesterol in the serum = assay: Cholesterol-lowering activity on normal rats of Wistar strain (serum cholesterol, liver weight); assay type: in vivo, rats (male Wistar strain); conditions: 0.3% in diet; for B - Ratio of decrease of liver weight: continuous administration for 4 days; for C - Ratio of decrease of cholesterol / D - Ratio of increase of liver weight: continuous administration for 14 days
Protocol: (3) Cholesteral-lowering activity on normal rats of Wistar strain:
(i) 22 Groups, each consisting of 5 rats (male Wistar strain, weight -- 150 to 180 g) were used for the test and control groups. After this, the blood samples were collected by decapitation and then the corpuscle was removed by centrifugation. Cholesterol in the serum was determined by Zurkowski's method modified by Shibata and also the liver was excised and weighed. The results are shown in Table 4 wherein the ratio of 100% denotes the amount of chloresterol and the weight of the liver of normal rats fed with powdery diet without the addition of the compound.

[1] = tested on: hyperlipemia induced by Triton; assay: Cholesterol-lowering activity on hyperlipemia induced by Triton in mice; assay type: in vivo, mice (male dd-strain); conditions: Mus musculus, po, 43 h, read-out: Ratio of the reduction of cholesterol
Protocol: (2) Cholesterol-Lowering activity on hyperlipemia induced by Triton in mice:
38 Groups, each consisting of 9 mice (male dd-strain, weight -- 19 to 21 g), were used for the test and control groups. […] Immediately after the administration and also after 20 hours from the administration of Triton, the mice were orally administered with 100 mg/kg of the compound shown in Table 3. 43 hours after the administration of Triton, the blood samples were collected by decapitation and then the corpuscle was removed by centrifugation. Cholesterol in the serum was determined by Zurkowski's method modified by Shibata (color of the test solution was developed by using sulfoalicyclic acid, acetic acid and sulfuric acid and the optical density of the solution was determined at 620 mμ.

[2] = tested on: Triglyceride, phospholipid and free fatty acid in the serum; assay: Determination of triglyceride, phospholipid and free fatty acid in the serum of normal rats; assay type: in vivo, rats (Wistar strain); conditions: for A - Ratio of decrease of triglyceride / B - Ratio of decrease of phospholipid / C - Ratio of decrease of free fatty acid: continuous administration for 4 days; for lowering activity on lipids other than cholesterol (in words): normal rats, 4 days
Protocol: (ii) Determination of triglyceride, phospholipid and free fatty acid in the serum of normal rats of Wistar strain: Clofibrate and Compounds 1 and 2 were tested in a similar manner to that described in (i). Triglyceride, phospholipid and free fatty acid in the serum were determined in the following manner to give the results shown in Table 5. (a) Determination of triglyceride: Triglyceride was determined by acetylacetone method [Kazuo Matsumiya et al "Rinsho Byori", Vol. 18, page 383 (1970), Japan] in the following manner. Isopropyl alcohol was added to the test solution of the serum to extract triglyceride which was then saponified with potassium hydroxide to give glycerol. The glycerol was oxidized by using sodium salt of methaperiodic acid to convert it into formaldehyde. Color of the test solution was developed by acetylacetone and the optical density at 420 mμ was determined. (b) Determination of phospholipid: "Phospholipid Test Wako", a reagent available from Wako Junyaku K.K., Japan, was used for the determination of phospholipid in the following manner according to a similar manner to that described in "Rinsho Byori", Vol. 17, page 389 (1969), Japan, by Atsuo […] et al. Trichloroacetic acid was added to the serum to give precipitates of lipoprotein which were then added with sulfuric acid and potassium permanganate to form phosphoric acid. Color of the test solution was developed by ammonium molybdate and the optical density was determined at 660 mμ. (c) Determination of free fatty acid: Laurell's method [CLin. Chim. Acta. 16, 57 (1967)] was used for determination in the following manner. […] After shaking for 5 minutes, the solution was centrifuged. 5 Ml of the supernatant was put into another tube and was added with 2 ml of copper reagent. […] The optical density at 550 mμ was determined.

[3] = tested on: cholesterol and triglyceride in the serum; assay: Lipid lowering activity in cynomolgus monkeys; assay type: in vivo, cynomolgus monkeys (male, born in Malaysia); conditions: 100 mg/kg/day oral, 10 days; for Decrease Ratio of Cholesterol / Decrease Ratio of Triglyceride: average of 3 times cross-over
Protocol: (6) Lipid lowering activity in cynomolgus monkeys:
6 cynomolgus monkeys (male, born in Malaysia, weight -- 2.5 to 3.9 kg) were used for this test. All monkies were breeded in individual cages at a temperature from 23° to 25° C. and fed with a solid diet for monkey (available from Oriental Yeast K.K., Japan) and sweet potatoes every morning and with apples and bananas from time to time. The monkeys were divided into 3 groups, each consisting of 2 monkeys, to orally and compulsively administer the test compound in an amount of 100 mg/kg/day once in every morning for 10 days. At 11 days after the first administration, before feeding the diet in early morning blood samples were collected from the saphenae of the monkeys to determine cholesterol and triglyceride in a similar manner to that described above. The ratio of lowering cholesterol (RCL) or triglyceride (RLT) was calculated by the following formula. [formula] wherein A is the average amount of the cholesterol or triglyceride in the serum before administration, and B is the corresponding amont after administration for 10 days.
After an interval of 5 weeks, another compound was administered to determine cholesterol or triglyceride in a similar manner to that described above. After a further interval of 5 weeks, a similar procedure was repeated by using another compound to determine cholesterol or triglyceride.

[4] = tested on: hyperlipemia induced by Triton; assay: Effect on hyperlipemia induced by Triton in rats: activity in the decreasing phase; assay type: in vivo, rats (male Wistar strain); conditions: for activity in the decreasing phase (in words): compared with Clofibrate; for Cholesterol / Cholesterol, Ratio of decrease / Triglyceride / Triglyceride, Ratio of decrease: serum, decreasing phase, 200 mg/kg oral 25 hours after Triton, sampled at 30 hours
Protocol: (§3) (4) Effect on hyperlipemia induced by Triton in rats:
(§4) 3 Groups, each consisting of 9 rats (male Wistar strain, weight -- 200 to 240 g) fasted for 24 hours were used for this test. Each rat was administered intravenously with 200 mg/kg of Triton (WR-1339), followed by oral administration of 200 mg/kg of the compounds shown in Table 6. After 20 hours from the administration, the blood samples were collected by decapitation. Cholesterol and triglyceride in the serum were determined in a similar manner to that used in (2, ii) to give the results shown in Table 6.
(II) Activity in the decreasing phase:
Hyperlipemia occurred by administering Triton (WR-1339) in a similar manner to that in (i). After 25 hours, 200 mg/kg of the compounds were orally administered to the rats. After 30 hours from the injection of Triton, the blood samples were collected by decapitation.

[5] = tested on: hyperlipemia induced by Triton; assay: Effect on hyperlipemia induced by Triton in rats: activity in the increasing phase; assay type: in vivo, rats (male Wistar strain); conditions: for activity in the developing phase (in words): Clofibrate, Compounds 1 and 2 compared with each other; for Cholesterol / Cholesterol, Ratio of decrease / Triglyceride / Triglyceride, Ratio of decrease: serum, increasing phase, 200 mg/kg oral, 20 hours
Protocol: as §3
(i) Activity in the increasing phase:
as §4

[6] = tested on: glycerol induced hyperlipemia; assay: Lipid lowering effects on glycerol induced hyperlipemia in rats; assay type: in vivo, rats (male Wistar strain); conditions: 0.25% in diet; for Cholesterol / Cholesterol, Ratio of decrease / Triglyceride / Triglyceride, Ratio of decrease: serum, 15% glycerol in water
Protocol: (5) Lipid lowering effects on glycerol induced hyperlipemia in rats: The test was carried out in a similar method to that by […] et al [Life Science, 3, 1021 (1964)] . A group consisting of 10 rats (male Wistar strain, weight - 190 to 210 g) was used for each of the test and control groups. Hyperlipemia occurred by feeding the rats ad libitum with water containing 15% (by volume) of glycerol. […] After this, the blood samples were collected by decapitation and the serum was separated by centrifugation.

[7] = ip, intraperitoneal administration, read-out: Acute Toxicity (LD50), B
[8] = oral administration, read-out: Acute Toxicity (LD50), A

Row | SMILES | LD50 at 168 h (Acute toxicity in rats) [mg/kg] | LD50 at 168 h (Acute toxicity in mice; [7]) [mg/kg] | LD50 at 168 h (Acute toxicity in mice; [8]) [mg/kg] | B - Ratio of decrease of liver weight (Cholesterol in the serum) [%] | inhibition in vivo at 100 mg/kg [1] [%] | A - Ratio of decrease of triglyceride [2] [%] | B - Ratio of decrease of phospholipid [2] [%] | C - Ratio of decrease of free fatty acid [2] [%] | lowering activity on lipids other than cholesterol (in words) [2] | cholesterol-lowering activity (in words) [3] | Decrease Ratio of Cholesterol [3] [%] | Decrease Ratio of Triglyceride [3] [%] | activity in the decreasing phase (in words) [4] | Cholesterol [4] [mg/dL] | Cholesterol, Ratio of decrease [4] [%] | Triglyceride [4] [mg/dL] | Triglyceride, Ratio of decrease [4] [%] | activity in the developing phase (in words) [5] | Cholesterol [5] [mg/dL] | Cholesterol, Ratio of decrease [5] [%] | also measured
1 | COC(=O)[C@H](Cc1ccccc1)NC(=O)SCc1ccc(OC)cc1 [Compound 13, N-(4-methoxybenzylthiocarbonyl)-L-phenylalanine methylester] | > 100 | > 100 | > 1000 | 38 | 56 | – | – | – | – | – | – | – | – | – | – | – | – | – | – | – | –
2 | COC(=O)[C@H](Cc1ccccc1)NC(=O)SCc1ccc(C)cc1 [Compound 2, N-(4-methylbenzylthiocarbonyl)-L-phenylalanine methylester] | > 900 | > 100 | > 4000 | 8.2 | 38 | 2.1 | 10.9 | 21.8 | have a lowering activity on lipids other than cholesterol | have a cholesterol-lowering activity | 9.7 | -7.3 | superior to that of Clofibrate | 116 | 22.2 | 205 | 40.9 | substantially equal | 202 | 21.3 | Triglyceride [5]: 729 mg/dL; Triglyceride, Ratio of decrease [5]: 45.5%; activity on lowering triglyceride and cholesterol (in words) [6]: have an activity on lowering triglyceride and cholesterol; Cholesterol [6]: 47.5 mg/dL; Cholesterol, Ratio of decrease [6]: 15.7%; Triglyceride [6]: 261 mg/dL; Triglyceride, Ratio of decrease [6]: 41.3%; C - Ratio of decrease of cholesterol (Cholesterol in the serum): 17.5%; D - Ratio of increase of liver weight (Cholesterol in the serum): 3.9%
3 | Cc1ccc(CSC(=O)N[C@@H](Cc2ccccc2)C(=O)O)cc1 [Compound 1, N-(4-methylbenzylthiocarbonyl)-L-phenylalanine] | > 200 | > 100 | > 4000 | 14.8 | 55 | 42.0 | 13.8 | 27.0 | have a lowering activity on lipids other than cholesterol | have a cholesterol-lowering activity | 12.2 | 10.8 | superior to that of Clofibrate | 103 | 30.7 | 141 | 59.4 | substantially equal | 198 | 22.7 | Triglyceride [5]: 940 mg/dL; Triglyceride, Ratio of decrease [5]: 29.7%; activity on lowering triglyceride and cholesterol (in words) [6]: have an activity on lowering triglyceride and cholesterol; Cholesterol [6]: 44.5 mg/dL; Cholesterol, Ratio of decrease [6]: 21.0%; Triglyceride [6]: 148 mg/dL; Triglyceride, Ratio of decrease [6]: 70.0%; C - Ratio of decrease of cholesterol (Cholesterol in the serum): 26.1%; D - Ratio of increase of liver weight (Cholesterol in the serum): 33.1%
